“And” between values parts separate entries of the source, which are not always exact repeats. Equal values may be shown once. Toxic doses and inconclusive results are not listed. The calls were made as follows: active = survival T/C of 150% or more; inactive = T/C below 125% in these data.
Test system: CD2F1 mice, L1210 leukemia ip, survival T/C
Experiment: NCI In Vivo Anticancer Drug Screen. Data for tumor model L1210 Leukemia (intraperitoneal) in CD2F1 (CDF1) mice
Conditions: higher = longer survival
Method in brief: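 In this screen, transplantable tumors were grown in mice given either the compound or its vehicle. Results were expressed as the treated measurement relative to the control measurement.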

[1] = endpoint: mean survival time, dose: 100.0 mg/kg/injection, schedule: Q01DX009 (ip), vehicle: saline with Tween-80
[2] = endpoint: mean survival time, dose: 100.0 mg/kg/injection, schedule: Q04DX003 (ip), vehicle: saline with Tween-80
[3] = endpoint: mean survival time, dose: 200.0 mg/kg/injection, schedule: Q01DX009 (ip), vehicle: saline with Tween-80
[4] = endpoint: mean survival time, dose: 200.0 mg/kg/injection, schedule: Q04DX003 (ip), vehicle: saline with Tween-80
[5] = endpoint: mean survival time, dose: 400.0 mg/kg/injection, schedule: Q01DX009 (ip), vehicle: saline with Tween-80
[6] = endpoint: mean survival time, dose: 400.0 mg/kg/injection, schedule: Q04DX003 (ip), vehicle: saline with Tween-80
[7] = endpoint: mean survival time, dose: 100.0 mg/kg/injection, schedule: Q01DX001 (ip), vehicle: saline
[8] = endpoint: mean survival time, dose: 100.0 mg/kg/injection, schedule: Q01DX009 (ip), vehicle: saline
[9] = endpoint: mean survival time, dose: 200.0 mg/kg/injection, schedule: Q01DX009 (ip), vehicle: saline
[10] = endpoint: mean survival time, dose: 400.0 mg/kg/injection, schedule: Q01DX009 (ip), vehicle: saline
[11] = endpoint: mean survival time, dose: 50.0 mg/kg/injection, schedule: Q01DX009 (ip), vehicle: saline with Tween-80
[12] = endpoint: mean survival time, dose: 50.0 mg/kg/injection, schedule: Q01DX009 (ip), vehicle: saline
[13] = endpoint: mean survival time, dose: 12.5 mg/kg/injection, schedule: Q01DX009 (ip), vehicle: saline
[14] = endpoint: mean survival time, dose: 25.0 mg/kg/injection, schedule: Q01DX009 (ip), vehicle: saline

Measured: T/C

COC1C(O)CC(OC2CC(Oc3cc4cc5c(c(O)c4c(O)c3C)C(=O)[C@@H](OC3CC(OC4CC(OC6CC(C)(O)C(OC(C)=O)C(C)O6)C(O)C(C)O4)C(O)C(C)O3)[C@H]([C@H](OC)C(=O)[C@@H](O)[C@@H](C)O)C5)OC(C)C2OC(C)=O)OC1C (some centres not stated)
inactive: endpoint: mean survival time, dose: 62.5 micrograms/kg/injection, schedule: Q01DX009 (ip), vehicle: saline 120 % of control | endpoint: mean survival time, dose: 250.0 micrograms/kg/injection, schedule: Q01DX009 (ip), vehicle: saline 92 % of control

COc1ccc2c[n+](C)c3c4cc(OC)c(OC)cc4ccc3c2c1
inactive: endpoint: mean survival time, dose: 25.0 mg/kg/injection, schedule: Q04DX003 (ip), vehicle: saline with Tween-80 96 % of control

O=S(=O)(OCC1CC2CCC1CC2)c1ccc(Br)cc1 (configuration not stated)
inactive: [1] 96 % of control | [2] 95 % of control | [3] 112 % of control | [4] 97 % of control | [5] 102 % of control | [6] 95 % of control

Cc1c(Cl)cccc1NC(=O)Nc1cccc2ccccc12
inactive: [1] 113 % of control | [2] 93 % of control | [3] 102 % of control | [4] 102 % of control | [5] 96 % of control | [6] 100 % of control

CCN(CC)CCC(=O)c1ccc2ccc3ccccc3c2c1
inactive: endpoint: mean survival time, dose: 50.0 mg/kg/injection, schedule: Q01DX001 (ip), vehicle: saline 93 % of control | [7] 89 % of control

C=CCC(Cl)(C(=O)OC)C(=O)OC
inactive: [1] 108 % of control | [3] 108 % of control | [5] 106 % of control

CCOC(=O)/C=C/SCC(N)C(=O)OCC (configuration not stated)
inactive: endpoint: mean survival time, dose: 25.0 mg/kg/injection, schedule: Q04DX002 (ip), vehicle: saline 98 % of control | endpoint: mean survival time, dose: 50.0 mg/kg/injection, schedule: Q04DX002 (ip), vehicle: saline 94 % of control | [7] 101 % of control | endpoint: mean survival time, dose: 100.0 mg/kg/injection, schedule: Q04DX002 (ip), vehicle: saline 96 % of control

O=C(O)CCC(=O)Nc1cccc(Oc2ccc([N+](=O)[O-])cc2[N+](=O)[O-])c1
inactive: [8] 94 % of control | [9] 94 % of control | [10] 100 % of control

CC(F)(F)Cc1ccccc1
inactive: endpoint: mean survival time, dose: 100.0 mg/kg/injection, schedule: Q01DX001 (ip), vehicle: saline with Tween-80 110 % of control | [2] 98 % of control | endpoint: mean survival time, dose: 200.0 mg/kg/injection, schedule: Q01DX001 (ip), vehicle: saline with Tween-80 102 % of control | [4] 95 % of control | endpoint: mean survival time, dose: 400.0 mg/kg/injection, schedule: Q01DX001 (ip), vehicle: saline with Tween-80 102 % of control | [6] 98 % of control

NC(=S)N/N=C/c1ccc(Cl)cn1
inactive: endpoint: mean survival time, dose: 4.89 mg/kg/injection, schedule: Q01DX009 (ip), vehicle: saline with Tween-80 120 % of control | endpoint: mean survival time, dose: 6.25 mg/kg/injection, schedule: Q04DX002 (ip), vehicle: saline with Tween-80 100 % of control | endpoint: mean survival time, dose: 12.5 mg/kg/injection, schedule: Q04DX002 (ip), vehicle: saline with Tween-80 104 % of control and 108 % of control

COC1OC2COCOC2C(OS(=O)(=O)c2ccc(C)cc2)C1OS(=O)(=O)c1ccc(C)cc1 (configuration not stated)
inactive: [11] 103 % of control | [1] 97 % of control | [3] 97 % of control

CO[C@H]1/C=C/O[C@@]2(C)Oc3c(C)c(O)c4c(O)c(c(/C=N/N5C(C)CN(Cc6ccccc6)CC5C)c(O)c4c3C2=O)NC(=O)/C(C)=C\C=C\[C@H](C)[C@H](O)[C@@H](C)[C@@H](O)[C@@H](C)[C@H](OC(C)=O)[C@@H]1C (some centres not stated)
inactive: [11] 96 % of control | [1] 100 % of control | [3] 96 % of control | [4] 90 % of control

CNC(=O)Oc1ccc2c(c1)OCO2
inactive: [12] 96 % of control | [8] 112 % of control | [9] 100 % of control

C=C(c1ccccc1)c1ccc(N(C)C)cc1
inactive: [2] 100 % of control | [4] 91 % of control | [6] 95 % of control

NC(CC(=O)NO)C(=O)O (configuration not stated)
inactive: [13] 95 % of control | [14] 101 % of control | [12] 101 % of control | [8] 95 % of control | [9] 111 % of control and 95 % of control | [10] 103 % of control

CCC(N)(CO)CO
inactive: [8] 100 % of control | [9] 94 % of control | [10] 94 % of control

CCOC(=O)C(C(=O)c1ccccc1)C(c1ccccc1)C(C(=O)OCC)C(=O)c1ccccc1 (configuration not stated)
inactive: [1] 94 % of control | [2] 93 % of control | [3] 94 % of control | [4] 90 % of control | [5] 100 % of control | [6] 98 % of control

O=N[O-].[Co].[NH2-].[NH2-].[NH2-].[NH2-].[NH2-]
inactive: [13] 103 % of control | endpoint: mean survival time, dose: 25.0 mg/kg/injection, schedule: Q01DX003 (ip), vehicle: saline 93 % of control | [14] 103 % of control | endpoint: mean survival time, dose: 50.0 mg/kg/injection, schedule: Q01DX003 (ip), vehicle: saline 100 % of control | [12] 105 % of control

COC(=O)c1c(CC#N)ncn1C1OC(COC(C)=O)C(OC(C)=O)C1OC(C)=O (configuration not stated)
inactive: endpoint: median survival time, dose: 8.25 mg/kg/injection, schedule: Q01DX005 (ip), vehicle: water 104 % of control | endpoint: median survival time, dose: 11.25 mg/kg/injection, schedule: Q01DX005 (ip), vehicle: water 100 % of control | endpoint: median survival time, dose: 16.5 mg/kg/injection, schedule: Q01DX005 (ip), vehicle: water 101 % of control | endpoint: median survival time, dose: 22.5 mg/kg/injection, schedule: Q01DX005 (ip), vehicle: water 98 % of control | endpoint: median survival time, dose: 33.0 mg/kg/injection, schedule: Q01DX005 (ip), vehicle: water 101 % of control | endpoint: median survival time, dose: 45.0 mg/kg/injection, schedule: Q01DX005 (ip), vehicle: water 101 % of control | endpoint: median survival time, dose: 66.0 mg/kg/injection, schedule: Q01DX005 (ip), vehicle: water 100 % of control | endpoint: median survival time, dose: 90.0 mg/kg/injection, schedule: Q01DX005 (ip), vehicle: water 100 % of control | endpoint: median survival time, dose: 132.0 mg/kg/injection, schedule: Q01DX005 (ip), vehicle: water 101 % of control | endpoint: median survival time, dose: 180.0 mg/kg/injection, schedule: Q01DX005 (ip), vehicle: water 100 % of control

COC(=O)C1CCN1C(C)C (configuration not stated)
inactive: endpoint: mean survival time, dose: 12.5 mg/kg/injection, schedule: Q01DX009 (ip), vehicle: other 106 % of control | endpoint: mean survival time, dose: 25.0 mg/kg/injection, schedule: Q01DX009 (ip), vehicle: other 106 % of control | endpoint: mean survival time, dose: 50.0 mg/kg/injection, schedule: Q01DX009 (ip), vehicle: other 96 % of control | endpoint: mean survival time, dose: 100.0 mg/kg/injection, schedule: Q01DX009 (ip), vehicle: other 98 % of control | endpoint: mean survival time, dose: 200.0 mg/kg/injection, schedule: Q01DX009 (ip), vehicle: other 98 % of control

CCCCN(Cl)CCCC
inactive: endpoint: mean survival time, dose: 25.0 mg/kg/injection, schedule: Q04DX002 (ip), vehicle: saline with Tween-80 92 % of control | endpoint: mean survival time, dose: 50.0 mg/kg/injection, schedule: Q04DX002 (ip), vehicle: saline with Tween-80 92 % of control | endpoint: mean survival time, dose: 100.0 mg/kg/injection, schedule: Q04DX002 (ip), vehicle: saline with Tween-80 103 % of control
